Laboratory results published in US8741944B2, “Anti-infective agents against intracellular pathogens” (priority 2007, dated 2014).
“And” between values parts separate entries of the source, which are not always exact repeats. Equal values may be shown once. Read-outs that look alike come from different tables or passages of the source.

Key:
[1] = tested on: CCRF-CEM (Leukemia); test: NCI DTP tumor cell line screen (SRB), CCRF-CEM
Protocol: (§1) For a typical screening experiment, cells are inoculated into 96 well microtiter plates in 100 μL at plating densities ranging from 5,000 to 40,000 cells/well depending on the doubling time of individual cell lines. After cell inoculation, the microtiter plates are incubated at 37° C., 5% CO2, 95% air and 100% relative humidity for 24 h prior to addition of experimental drugs.
(§2) After 24 h, two plates of each cell line are fixed in situ with TCA, to represent a measurement of the cell population for each cell line at the time of drug addition (Tz). Experimental drugs are solubilized in dimethyl sulfoxide at 400-fold the desired final maximum test concentration and stored frozen prior to use. At the time of drug addition, an aliquot of frozen concentrate is thawed and diluted to twice the desired final maximum test concentration with complete medium containing 50 μg/ml gentamicin. Additional four, 10-fold or ½ log serial dilutions are made to provide a total of five drug concentrations plus control. Aliquots of 100 μl of these different drug dilutions are added to the appropriate microtiter wells already containing 100 μl of medium, resulting in the required final drug concentrations.
(§3) Following drug addition, the plates are incubated for an additional 48 h at 37° C., 5% CO2, 95% air, and 100% relative humidity. For adherent cells, the assay is terminated by the addition of cold TCA. Cells are fixed in situ by the gentle addition of 50 μl of cold 50% (w/v) TCA (final concentration, 10% TCA) and incubated for 60 minutes at 4° C. The supernatant is discarded, and the plates are washed five times with tap water and air dried. Sulforhodamine B (SRB) solution (1001) at 0.4% (w/v) in 1% acetic acid is added to each well, and plates are incubated for 10 minutes at room temperature. After staining, unbound dye is removed by washing five times with 1% acetic acid and the plates are air dried. Bound stain is subsequently solubilized with 10 mM trizma base, and the absorbance is read on an automated plate reader at a wavelength of 515 nm. For suspension cells, the methodology is the same except that the assay is terminated by fixing settled cells at the bottom of the wells by gently adding 50 μl of 80% TCA (final concentration, 16% TCA). Using the seven absorbance measurements [time zero, (Tz), control growth, (C), and test growth in the presence of drug at the five concentration levels (Ti)], the percentage growth is calculated at each of the drug concentrations levels. Percentage growth inhibition is calculated as: [(Ti−Tz)/(C−Tz)]×100 for concentrations for which Ti>/=Tz [(Ti−Tz)/Tz]×100 for concentrations for which Ti<Tz
(§4) Three dose response parameters are calculated for each experimental agent. […] The drug concentration resulting in total growth inhibition (TGI) is calculated from Ti=Tz. […] Values are calculated for each of these three parameters if the level of activity is reached; however, if the effect is not reached or is exceeded, the value for that parameter is expressed as greater or less than the maximum or minimum concentration tested.

[2] = tested on: LOX IMVI (Melanoma); test: NCI DTP tumor cell line screen (SRB), LOX IMVI
Protocol: as §1, §2, §3, §4

[3] = tested on: NCI-H460 (Non-Small Cell Lung Cancer)
Protocol: as §1, §2, §3, §4

[4] = tested on: MALME-3M (Melanoma); test: NCI DTP tumor cell line screen (SRB), MALME-3M
Protocol: as §1, §2, §3, §4

[5] = tested on: MOLT-4 (Leukemia); test: NCI DTP tumor cell line screen (SRB), MOLT-4
Protocol: as §1, §2, §3, §4

[6] = tested on: sixty human tumor cell lines; test: NCI DTP sixty human tumor cell line screen (SRB), means over the panel
[7] = tested on: KM12 (Colon Cancer); test: NCI DTP tumor cell line screen (SRB), KM12
Protocol: as §1, §2, §3, §4

[8] = tested on: SN12C (Renal Cancer); test: NCI DTP tumor cell line screen (SRB), SN12C
Protocol: as §1, §2, §3, §4

[9] = tested on: OVCAR-3 (Ovarian Cancer); test: NCI DTP tumor cell line screen (SRB), OVCAR-3
Protocol: as §1, §2, §3, §4

[10] = tested on: OVCAR-8 (Ovarian Cancer); test: NCI DTP tumor cell line screen (SRB), OVCAR-8
Protocol: as §1, §2, §3, §4

[11] = tested on: K-562 (Leukemia); test: NCI DTP tumor cell line screen (SRB), K-562
Protocol: as §1, §2, §3, §4

[12] = tested on: EKVX (Non-Small Cell Lung Cancer); test: NCI DTP tumor cell line screen (SRB), EKVX
Protocol: as §1, §2, §3, §4

[13] = tested on: HCT-116 (Colon Cancer); test: NCI DTP tumor cell line screen (SRB), HCT-116
Protocol: as §1, §2, §3, §4

[14] = tested on: T-47D (Breast Cancer); test: NCI DTP tumor cell line screen (SRB), T-47D
Protocol: as §1, §2, §3, §4

[15] = tested on: HCT-15 (Colon Cancer); test: NCI DTP tumor cell line screen (SRB), HCT-15
Protocol: as §1, §2, §3, §4

[16] = tested on: CAKI-1 (Renal Cancer); test: NCI DTP tumor cell line screen (SRB), CAKI-1
Protocol: as §1, §2, §3, §4

Which results are given for “4-[5-(2-Phenanthrenyl)-3-(trifluoromethyl)-1H-pyrazol-1-yl]-phenyl -guanidine [Compound 71]”?
GI50 [1]: 1.23 µM; TGI [1]: 2.48E−06; Percent Growth ([1]; Log10 Concentration −4.0): −53%; Percent Growth ([1]; Log10 Concentration −5.0): −99%; Percent Growth ([1]; Log10 Concentration −6.0): 65%; Percent Growth ([1]; Log10 Concentration −7.0): 79%; Percent Growth ([1]; Log10 Concentration −8.0): 78%; GI50 [2]: 1.34 µM; TGI [2]: 2.65E−06; Percent Growth ([2]; Log10 Concentration −4.0): −53%; Percent Growth ([2]; Log10 Concentration −5.0): −98%; Percent Growth ([2]; Log10 Concentration −6.0): 72%; Percent Growth ([2]; Log10 Concentration −8.0): 73%; GI50 [3]: 1.64 µM; TGI [3]: 3.04E−06; Percent Growth ([3]; Log10 Concentration −4.0): −20%; Percent Growth ([3]; Log10 Concentration −5.0): −97%; Percent Growth ([3]; Log10 Concentration −6.0): 90%; Percent Growth ([3]; Log10 Concentration −7.0): 91%; Percent Growth ([3]; Log10 Concentration −8.0): 91%; GI50 [4]: 1.01 µM; TGI [4]: 2.33E−06; Percent Growth ([4]; Log10 Concentration −4.0): −50%; Percent Growth ([4]; Log10 Concentration −6.0): 50%; Percent Growth ([4]; Log10 Concentration −8.0): 52%; GI50 [5]: 0.233 µM; TGI [5]: 1.98E−06; Percent Growth ([5]; Log10 Concentration −6.0): 23%; Percent Growth ([5]; Log10 Concentration −7.0): 66%; concentration range completely suppressing cell growth in a diverse range of tumor cell lines [6]: 3 to 5 µM; GI50 ([6]; read-out: mean GI50 among the sixty cell lines, two-day treatment): 1.2 µM and 1.3 µM; CC50 ([6]; read-out: mean LC50 among the sixty cell lines, two-day treatment): 8.5 µM; mean TGI among the sixty cell lines ([6]; two-day treatment): 2.9 µM; GI50 [7]: 1.59 µM; TGI [7]: 2.97E−06; Percent Growth ([7]; Log10 Concentration −4.0): −43%; Percent Growth ([7]; Log10 Concentration −5.0): −98%; Percent Growth ([7]; Log10 Concentration −7.0): 91%; Percent Growth ([7]; Log10 Concentration −8.0): 94%; GI50 [8]: 1.57 µM; TGI [8]: 2.91E−06; Percent Growth ([8]; Log10 Concentration −4.0): −62%; Percent Growth ([8]; Log10 Concentration −5.0): −100%; Percent Growth ([8]; Log10 Concentration −7.0): 78%; GI50 [9]: 1.4 µM; TGI [9]: 2.70E−06; Percent Growth ([9]; Log10 Concentration −4.0): −72%; Percent Growth ([9]; Log10 Concentration −5.0): −100%; Percent Growth ([9]; Log10 Concentration −6.0): 76%; Percent Growth ([9]; Log10 Concentration −8.0): 91%; GI50 ([10]; OVCAR 8): 1.69 µM; TGI ([10]; OVCAR 8): 3.05E−06; Percent Growth ([10]; OVCAR 8, Log10 Concentration −4.0): −69%; Percent Growth ([10]; OVCAR 8, Log10 Concentration −5.0): −100%; Percent Growth ([10]; OVCAR 8, Log10 Concentration −6.0): 94%; Percent Growth ([10]; OVCAR 8, Log10 Concentration −8.0): 92%; GI50 [11]: 0.326 µM; TGI [11]: 1.52E−06; Percent Growth ([11]; Log10 Concentration −4.0): −60%; Percent Growth ([11]; Log10 Concentration −5.0): −58%; Percent Growth ([11]; Log10 Concentration −6.0): 13%; Percent Growth ([11]; Log10 Concentration −8.0): 94%; GI50 [12]: 1.06 µM; TGI [12]: 2.24E−06; Percent Growth ([12]; Log10 Concentration −5.0): −100%; Percent Growth ([12]; Log10 Concentration −7.0): 63%; Percent Growth ([12]; Log10 Concentration −8.0): 55%; GI50 [13]: 1.29 µM; TGI [13]: 2.55E−06; Percent Growth ([13]; Log10 Concentration −4.0): −49%; Percent Growth ([13]; Log10 Concentration −5.0): −100%; Percent Growth ([13]; Log10 Concentration −6.0): 68%; Percent Growth ([13]; Log10 Concentration −8.0): 82%; GI50 [14]: < 0.01 µM; TGI [14]: 1.98E−06; Percent Growth ([14]; Log10 Concentration −4.0): −53%; Percent Growth ([14]; Log10 Concentration −5.0): −76%; Percent Growth ([14]; Log10 Concentration −6.0): 32%; Percent Growth ([14]; Log10 Concentration −7.0): 47%; Percent Growth ([14]; Log10 Concentration −8.0): 36%; GI50 ([15]; HCT-15): 1.54 µM; TGI ([15]; HCT-15): 2.87E−06; Percent Growth ([15]; HCT-15, Log10 Concentration −4.0): −71%; Percent Growth ([15]; HCT-15, Log10 Concentration −5.0): −100%; Percent Growth ([15]; HCT-15, Log10 Concentration −8.0): 64%; GI50 [16]: 1.83 µM; TGI [16]: 3.22E−06; Percent Growth ([16]; Log10 Concentration −4.0): −47%; Percent Growth ([16]; Log10 Concentration −5.0): −100%; Percent Growth ([16]; Log10 Concentration −6.0): 103%; Percent Growth ([16]; Log10 Concentration −8.0): 97%
